pIC50: −log10 of the molar value.
Biological target: BRD4 (Homo sapiens, UniProt O60885)
Test: Time resolved fluorescence resonance energy transfer (TR-FRET) binding assay, bromodomain BRD4
Details: one of the FRET assays described; read-out: FRET BRD4 IC50

Row | Compound | pIC50
1 | 2-{13-Methoxy-5-[4-(^2H3)methyl-1-methyl-1H-1,2,3-triazol-5-yl]-8-[(S)-oxan-4-yl(phenyl)methyl]-3,8,12-triazatricyclo[7.4.0.0^2,^7]trideca-1(13),2(7),3,5,9,11-hexaen-11-yl}propan-2-ol [Example 344] | > 8.00
2 | Cc1noc(C)c1-c1cnc2c3c(NS(C)(=O)=O)ncc(S(C)(=O)=O)c3n([C@H](c3ccccc3)C3CCOCC3)c2c1 [Example 102, N-[5-(Dimethyl-1,2-oxazol-4-yl)-10-methanesulfonyl-8-[(S)-oxan-4-yl(phenyl)methyl]-3,8,12-triazatricyclo[7.4.0.0^2,^7]trideca-1(13),2(7),3,5,9,11-hexaen-13-yl]methanesulfonamide] | > 8.00
3 | Cc1cc([C@H](C2CCOCC2)n2c3cc(-c4c(C)nnn4C)ncc3c3ncc(C(C)(C)O)cc32)no1 [Example 365] | > 8.00
4 | [2H]C([2H])([2H])c1nnn(C)c1-c1cnc2c3cncc(C(C)(C)O)c3n([C@H](c3ccccc3)C3CCOCC3)c2c1 [Example 291, 2-{5-[4-(^2H3)Methyl-1-methyl-1H-1,2,3-triazol-5-yl]-8-[(S)-oxan-4-yl(phenyl)methyl]-3,8,12-triazatricyclo[7.4.0.0^2,^7]trideca-1(9),2,4,6,10,12-hexaen-10-yl}propan-2-ol] | > 9.00
5 | [2H]C([2H])([2H])c1nnn(C)c1-c1cnc2c3c(C(C)(C)O)cncc3n([C@H](c3ccccc3)C3CCOCC3)c2c1 [Example 298, 2-{5-[4-(^2H3)Methyl-1-methyl-1H-1,2,3-triazol-5-yl]-8-[(S)-oxan-4-yl(phenyl)methyl]-3,8,11-triazatricyclo[7.4.0.0^2,^7]trideca-1(9),2(7),3,5,10,12-hexaen-13-yl}propan-2-ol] | > 8.00
6 | [2H]C([2H])([2H])Oc1ncc(S(C)(=O)=O)c2c1c1ncc(-c3c(C)noc3C([2H])([2H])[2H])cc1n2[C@H](c1ccccc1)C1CCOCC1 [Example 54, 10-Methanesulfonyl-13-(^2H3)methoxy-5-[5-(^2H3)methyl-3-methyl-1,2-oxazol-4-yl]-8-[(S)-oxan-4-yl(phenyl)methyl]-3,8,12-triazatricyclo[7.4.0.0^2,^7]trideca-1(13),2(7),3,5,9,11-hexaene] | > 8.00
7 | [2H]C([2H])([2H])c1nnn(C)c1-c1cnc2c3ccc(N4CCNCC4)nc3n([C@H](c3ccccc3)C3CCOCC3)c2c1 [Example 251, 5-[4-(^2H3)Methyl-1-methyl-1H-1,2,3-triazol-5-yl]-8-[(S)-oxan-4-yl(phenyl)methyl]-11-(piperazin-1-yl)-3,8,10-triazatricyclo[7.4.0.0^2,^7]trideca-1(13),2(7),3,5,9,11-hexaene] | > 8.00
8 | [2H]C([2H])([2H])c1nnn(C)c1-c1cnc2c3c(OC)nc(N4CCC(F)(F)CC4)cc3n([C@H](c3ccccc3)C3CCOCC3)c2c1 [Example 343, 11-(4,4-Difluoropiperidin-1-yl)-13-methoxy-5-[4-(^2H3)methyl-1-methyl-1H-1,2,3-triazol-5-yl]-8-[(S)-oxan-4-yl(phenyl)methyl]-3,8,12-triazatricyclo[7.4.0.0^2,^7]trideca-1(13),2(7),3,5,9,11-hexaene] | > 9.00
9 | CC(=O)c1ccc(-c2ccc3c4ncc(-c5c(C)nnn5C)cc4n([C@H](c4ccccc4)C4CCOCC4)c3n2)s1 [Example 162, 1-{5-[5-(Dimethyl-1H-1,2,3-triazol-5-yl)-8-[(S)-oxan-4-yl(phenyl)methyl]-3,8,10-triazatricyclo[7.4.0.0^2,^7]trideca-1(9),2(7),3,5,10,12-hexaen-11-yl]thiophen-2-yl}ethan-1-one] | > 8.00
10 | [2H]C([2H])([2H])Oc1ncc(S(C)(=O)=O)c2c1c1ncc(-c3c(C)noc3C([2H])([2H])[2H])cc1n2[C@H](c1ccc(F)cc1)C1CCOCC1 [Example 55, 8-[(S)-(4-Fluorophenyl)(oxan-4-yl)methyl]-10-methanesulfonyl-13-(^2H3)methoxy-5-[5-(^2H3)methyl-3-methyl-1,2-oxazol-4-yl]-3,8,12-triazatricyclo[7.4.0.0^2,^7]trideca-1(13),2(7),3,5,9,11-hexaene] | > 9.00
11 | [2H]C([2H])([2H])c1nnn(C)c1-c1cnc2c3cnc(Cl)cc3n(C(c3ncccc3F)C3CCOCC3)c2c1 (single isomer, unassigned) [Example 320] | > 5.82
12 | Cc1nnn(C)c1-c1cnc2c3cnc(N4CCN(C5CC5)CC4)nc3n([C@H](c3ccccc3)C3CCOCC3)c2c1 [Example 157, 11-(4-Cyclopropylpiperazin-1-yl)-5-(dimethyl-1H-1,2,3-triazol-5-yl)-8-[(S)-oxan-4-yl(phenyl)methyl]-3,8,10,12-tetraazatricyclo[7.4.0.0^2,^7]trideca-1(9),2(7),3,5,10,12-hexaene] | > 8.00
13 | [2H]C([2H])([2H])c1nnn(C)c1-c1cnc2c3cnc(S(C)(=O)=O)cc3n([C@H](c3ccccc3F)C3CCOCC3)c2c1 [Example 245, 8-[(S)-(2-Fluorophenyl)(oxan-4-yl)methyl]-11-methanesulfonyl-5-[4-(^2H3)methyl-1-methyl-1H-1,2,3-triazol-5-yl]-3,8,12-triazatricyclo[7.4.0.0^2,^7]trideca-1(13),2(7),3,5,9,11-hexaene] | > 8.00
14 | [2H]C([2H])([2H])c1nnn(C)c1-c1cnc2c3c(OC)ncc(S(C)(=O)=O)c3n([C@@H](c3ccccc3)C3CCC(F)(F)CC3)c2c1 [Example 82, 8-[(R)-(4,4-Difluorocyclohexyl)(phenyl)methyl]-10-methanesulfonyl-13-methoxy-5-[4-(^2H3)methyl-1-methyl-1H-1,2,3-triazol-5-yl]-3,8,12-triazatricyclo[7.4.0.0^2,^7]trideca-1(13),2(7),3,5,9,11-hexaene] | > 5.82
15 | Cc1nnn(C)c1-c1ccc2c3ncc(C(C)(C)O)cc3n([C@@H](c3ccccc3)C3CCOCC3)c2n1 [Example 378, 2-[11-(Dimethyl-1H-1,2,3-triazol-5-yl)-8-[(R)-oxan-4-yl(phenyl)methyl]-3,8,10-triazatricyclo[7.4.0.0^2,^7]trideca-1(9),2(7),3,5,10,12-hexaen-5-yl]propan-2-ol] | > 8.00
16 | [2H]C([2H])([2H])c1nnn(C)c1-c1cnc2c3ccc(N4CCN(CC(F)(F)F)CC4)nc3n([C@H](c3ccccc3)C3CCOCC3)c2c1 [Example 154, 5-[4-(^2H3)Methyl-1-methyl-1H-1,2,3-triazol-5-yl]-8-[(S)-oxan-4-yl(phenyl)methyl]-11-[4-(2,2,2-trifluoroethyl)piperazin-1-yl]-3,8,10-triazatricyclo[7.4.0.0^2,^7]trideca-1(9),2(7),3,5,10,12-hexaene] | > 8.00
17 | COc1nc(Cl)cc2c1c1ncc(-c3c(C)nnn3C)cc1n2C(c1ncccc1O)C1CCOCC1 (stereo not drawn) [Example 306, 2-({11-Chloro-13-methoxy-5-[4-(^2H3)methyl-1-methyl-1H-1,2,3-triazol-5-yl]-3,8,12-triazatricyclo[7.4.0.0^2,^7]trideca-1(9),2(7),3,5,10,12-hexaen-8-yl}(oxan-4-yl)methyl)pyridin-3-ol] | > 8.00
18 | Cc1nnn(C)c1-c1cnc2c3ccc(S(C)(=O)=O)nc3n([C@H](c3ccccc3F)C3CCOCC3)c2c1 [Example 221, 5-(Dimethyl-1H-1,2,3-triazol-5-yl)-8-[(S)-(2-fluorophenyl)(oxan-4-yl)methyl]-11-methanesulfonyl-3,8,10-triazatricyclo[7.4.0.0^2,^7]trideca-1(13),2(7),3,5,9,11-hexaene] | > 8.00
19 | COc1ncc(S(C)(=O)=O)c2c1c1ncc(-c3c(C)nnn3C)cc1n2C(c1ccccc1)C1CCC(F)(F)CC1 (single isomer, unassigned) [Example 90, 8-[(4,4-Difluorocyclohexyl)(phenyl)methyl]-5-(dimethyl-1H-1,2,3-triazol-5-yl)-10-methanesulfonyl-13-methoxy-3,8,12-triazatricyclo[7.4.0.0^2,^7]trideca-1(13),2(7),3,5,9,11-hexaene] | > 8.00
20 | 2-{8-[(3-Fluoropyridin-2-yl)(oxan-4-yl)methyl]-11-[4-(^2H3)methyl-1-methyl-1H-1,2,3-triazol-5-yl]-3,8,10-triazatricyclo[7.4.0.0^2,^7]trideca-1(9),2,4,6,10,12-hexaen-5-yl}propan-2-ol [Example 362] | > 8.00
21 | [2H]C([2H])([2H])c1nnn(C)c1-c1cc2c(cn1)c1ncc(C(C)(C)O)cc1n2C(c1ncccc1F)C1CCOCC1 (single isomer, unassigned) [Example 367] | > 8.00
22 | CSc1nccc2c3ncc(-c4c(C)nnn4C)cc3n([C@H](c3ccccc3F)C3CCOCC3)c12 [Example 31, 5-(Dimethyl-1H-1,2,3-triazol-5-yl)-8-[(S)-(2-fluorophenyl)(oxan-4-yl)methyl]-10-(methylsulfanyl)-3,8,11-triazatricyclo[7.4.0.0^2,^7]trideca-1(13),2(7),3,5,9,11-hexaene] | > 8.00
23 | Cc1nnn(C)c1-c1cnc2c3ccc(NC(=O)C(C)(C)C)nc3n([C@H](c3ccccc3)C3CCOCC3)c2c1 [Example 207, N-[5-(Dimethyl-1H-1,2,3-triazol-5-yl)-8-[(S)-oxan-4-yl(phenyl)methyl]-3,8,10-triazatricyclo[7.4.0.0^2,^7]trideca-1(9),2(7),3,5,10,12-hexaen-11-yl]-2,2-dimethylpropanamide] | > 8.00
24 | Cc1nnn(C)c1-c1cnc2c3cnc(C(C)(C)O)cc3n([C@H](c3ncccc3F)C3CCOCC3)c2c1 [Example 339] | > 8.00
25 | Cc1nnn(C)c1-c1cnc2c3cnc(Cl)cc3n([C@H](c3ccc(Cl)cn3)C3CCOCC3)c2c1 [Example 323] | > 8.00
26 | [2H]C([2H])([2H])c1nnn(C)c1-c1cnc2c3c(OC)nccc3n([C@H](c3ccccc3)C3CCOCC3)c2c1 [Example 128, 13-Methoxy-5-[4-(^2H3)methyl-1-methyl-1H-1,2,3-triazol-5-yl]-8-[(S)-oxan-4-yl(phenyl)methyl]-3,8,12-triazatricyclo[7.4.0.0^2,^7]trideca-1(13),2(7),3,5,9,11-hexaene] | > 8.00
27 | COc1ccc2c3ncc(-c4c(C)nnn4C)cc3n([C@H](c3ccccc3)C3CCOCC3)c2n1 [Example 12, 5-(Dimethyl-1H-1,2,3-triazol-5-yl)-11-methoxy-8-[(S)-oxan-4-yl(phenyl)methyl]-3,8,10-triazatricyclo[7.4.0.0^2,^7]trideca-1(13),2(7),3,5,9,11-hexaene] | > 8.00
